Test results reported in patent publication US20240002375A1, “2-(INDAZOL-5-YL)-6-(PIPERIDIN-4-YL)-1,7-NAPHTHYRIDINE DERIVATIVES AND RELATED COMPOUNDS AS MODULATORS FOR SPLICING NUCLEIC ACIDS AND FOR THE TRE” (REMIX THERAPEUTICS INC., priority 2020, published 2024).
Structures can show the parent of a compound that is named as a salt. Where two headings read alike, the source gives them in different places.

Tests used:
Type in all cases: cell-based
HTT mRNA = assay: Splicing assay (RT-qPCR) of HTT mRNA alternative junction (AJ) and canonical junction (CJ)
Procedure: Compounds described herein were used to modulate RNA transcript abundance in cells. The expression of a target mRNA was measured by detecting the formation of an exon-exon junction in the canonical transcript (CJ). A compound mediated exon-inclusion event was detected by observing an increase in formation of a new junction with an alternative exon (AJ). Real-time qPCR assays were used to detect these splicing switches and interrogate the potency of various compounds towards different target genes. A high-throughput real time quantitative PCR (RT-qPCR) assay was developed to measure these two isoforms of the mRNA (CJ and AJ) for an exemplary gene, HTT, together with a control housekeeping gene, GAPDH or GUSB or PPIA, used for normalization. Briefly, the A673 or K562 cell line was treated with various compounds described herein (e.g., compounds of Formula (I) or (II)). After treatment, the levels of the HTT mRNA targets were determined from each sample of cell lysate by cDNA synthesis followed by qPCR.
Materials: • Cells-to-CT 1-step kit: ThermoFisher A25602, Cells-to-CT lysis reagent: ThermoFisher 4391851C, TagMan™ Fast Virus 1-Step Master Mix: ThermoFisher 4444436 • GAPDH: VIC-PL, ThermoFisher 4326317E (Assay: Hs99999905_ml)—used for K562/suspension cell lines • GUSB: VIC-PL, ThermoFisher 4326320E (Assay: Hs99999908 ml)—used for K562/suspension cell lines • PPIA: VIC-PL, ThermoFisher 4326316E (Assay: Hs99999904 ml)—used for A673/adherent cell lines
The A673 cell line was cultured in DMEM with 10% FBS. Cells were diluted with full growth media and plated in a 96-well plate (15,000 cells in 100 ul media per well). The plate was incubated at 37° C. with 5% CO2 for 24 hours to allow cells to adhere. An 11-point 3-fold serial dilution of the compounds was made in DMSO then diluted in media in an intermediate plate. Compounds were transferred from the intermediate plate to the cell plate with the top dose at a final concentration of 10 uM in the well. Final DMSO concentration was kept at or below 0.25%. The cell plate was returned to the incubator at 37° C. with 5% CO2 for an additional 24 hours.
The K562 cell line was cultured in IMDM with 10% FBS. For K562, cells were diluted with full growth media and plated in either a 96-well plate (50,000 cells in 50 uL media per well) or a 384-well plate (8,000-40,000 cells in 45 uL media per well). An 11-point 3-fold serial dilution of the compounds were made in DMSO then diluted in media in an intermediate plate. Compound was transferred from the intermediate plate to the cell plate with the top dose at a final concentration of 10 uM in the well. Final DMSO concentration was kept at or below 0.25%. Final volume was 100 uL for 96-well plate and 50 uL for 384-well plate. The cell plate was then placed in an incubator at 37° C. with 5% CO2 for 24 hours.
The cells were then gently washed with 50 uL-100 uL cold PBS before proceeding to addition of lysis buffer. 30 uL-50 uL of room temperature lysis buffer with DNAse I (and optionally RNAsin) was added to each well. Cells were shaken/mixed thoroughly at room temperature for 5-10 minutes for lysis to take place and then 3 uL-5 uL of room temperature stop solution was added and wells were shaken/mixed again. After 2-5 minutes, the cell lysate plate was transferred to ice for RT-qPCR reaction setup. The lysates could also be frozen at −80° C. for later use.
In some cases, a direct lysis buffer was used. An appropriate volume of 3X lysis buffer (10 mM Tris, 150 mM NaCl, 1.5%-2.5% Igepal and 0.1-1 U/uL RNAsin, pH 7.4) was directly added to either K562 or A673 cells in media and mixed by pipetting 3 times. The plates were then incubated at room temperature with shaking/rocking for 20-50 minutes to allow for lysis to take place. After this time, the cell lysate plate was transferred to ice to set up for the RT-qPCR reactions. The lysates could also be frozen at −80° C. for later use. […]

HTT CJ mRNA = assay: Gene panel canonical junction qPCR splicing assay, HTT; conditions: Table 4, read-out: HTT IC50 (decrease in CJ mRNA levels)
Procedure: (§1) Compounds described herein were used to modulate RNA transcript abundance in cells. The expression of a target mRNA was measured by detecting the formation of an exon-exon junction in the canonical transcript (CJ). A compound mediated exon-inclusion event was detected by observing an increase in formation of a new junction with an alternative exon (AJ). Real-time qPCR assays were used to detect these splicing switches and interrogate the potency of various compounds towards different target genes. A high-throughput real time quantitative PCR (RT-qPCR) assay was developed to measure these two isoforms of the mRNA (CJ and AJ) for an exemplary gene, HTT, together with a control housekeeping gene, GAPDH or GUSB or PPIA, used for normalization. Briefly, the A673 or K562 cell line was treated with various compounds described herein (e.g., compounds of Formula (I) or (II)). After treatment, the levels of the HTT mRNA targets were determined from each sample of cell lysate by cDNA synthesis followed by qPCR. The data analysis was performed by first determining the ΔCt vs the housekeeper gene. This ΔCt was then normalized against the DMSO control (ΔΔCt) and converted to RQ (relative quantification) using the 2^(−ΔΔCt) equation. The RQ were then converted to a percentage response by arbitrarily setting an assay window of 3.5 ΔCt for HTT-CJ and an assay window of 9 ΔCt for HTT-AJ. […] The percentage response was then fitted to the 4 parametric logistic equation to evaluate the concentration dependence of compound treatment. The increase in AJ mRNA is reported as AC50 (compound concentration having 50% response in AJ increase) while the decrease in CJ mRNA levels is reported as IC50 (compound concentration having 50% response in CJ decrease). Additional studies were carried out for a larger panel of genes using the protocol provided above. The junction between flanking upstream and downstream exons was used to design canonical junction qPCR assays. At least one of the forward primer, reverse primer or the CY5-labeled 5′ nuclease probe (with 3′ quencher such as ZEN/Iowa Black FQ) was designed to overlap with the exon junction to capture the CJ mRNA transcript. BLAST was used to confirm the specificity of the probeset and parameters such as melting temperature, GC content, amplicon size, and primer dimer formation are considered during their design. Data for the decrease in CJ mRNA levels for three exemplary genes (HTT, SMN2, and Target C) analyzed in this panel are reported as IC50 (compound concentration having 50% response in CJ decrease).

SMN2 CJ mRNA = assay: Gene panel canonical junction qPCR splicing assay, SMN2; conditions: Table 4, read-out: SMN2 IC50 (decrease in CJ mRNA levels)
Procedure: as §1

Target C CJ mRNA = assay: Gene panel canonical junction qPCR splicing assay, Target C; conditions: Table 4, read-out: Target C IC50 (decrease in CJ mRNA levels)
Procedure: as §1

[1] = decrease in CJ mRNA, A673 or K562 cells, 24 hours, read-out: HTT CJ IC50
[2] = increase in AJ mRNA, A673 or K562 cells, 24 hours, read-out: HTT AJ AC50

Row | SMILES | IC50 (HTT mRNA; [1]) [nM] | IC50 (HTT CJ mRNA) [nM] | IC50 (SMN2 CJ mRNA) [nM] | IC50 (Target C CJ mRNA) [nM] | AC50 (HTT mRNA; [2]) [nM] | AC50 (HTT mRNA; 24 h, read-out: HTT AJ AC50 (nM)) [nM] | IC50 (HTT mRNA; 24 h, read-out: HTT CJ IC50 (nM)) [nM]
1 | Cn1cc2cc(-c3ccc4nc(N5CCC(NC(C)(C)C)CC5)ccc4n3)c(O)cc2n1 [Compound 132, 5-[6-[4-(tert-butylamino)piperidin-1-yl]-1,5-naphthyridin-2-yl]-2-methylindazol-6-ol] | > 10000 | > 10000 | > 10000 | > 10000 | > 10000 | – | –
2 | COc1cc2c(=O)n(C)cnc2cc1-c1ccc2nc(N3CCC(NC(C)(C)C)C3)ccc2n1 (stereo not drawn) [Compound 168, 7-{6-[3-(tert-butylamino)pyrrolidin-1-yl]-1,5-naphthyridin-2-yl}-6-methoxy-3-methylquinazolin-4-one] | > 10000 | > 10000 | > 10000 | > 10000 | > 10000 | – | –
3 | Cn1cc2cc(-c3ccc4nc(N5CCN6CCCC6C5)ccc4n3)c(O)cc2n1 (stereo not drawn) [Compound 134, 5-(6-[hexahydro-1H-pyrrolo[1,2-a]pyrazin-2-yl]-1,5-naphthyridin-2-yl)-2-methylindazol-6-ol] | 1000 to 10000 | 1000 to 10000 | < 100 | 1000 to 10000 | 1000 to 10000 | – | –
4 | Cn1cc2cc(-c3ccc4nc(N5CC[C@H](NC6CCC6)C5)ccc4n3)c(O)cc2n1 [Compound 156, 5-{6-[(3S)-3-(cyclobutylamino)pyrrolidin-1-yl]-1,5-naphthyridin-2-yl}-2-methylindazol-6-ol] | – | < 100 | < 100 | 100 to 1000 | – | < 100 | < 100
5 | C[C@H]1C[C@@H](c2ccc3nc(-c4cc5cn(C)nc5cc4O)ccc3n2)CCN1 (relative stereo) [Compound 140, 2-methyl-5-[6-[(2S,4S)-2-methylpiperidin-4-yl]-1,5-naphthyridin-2-yl]indazol-6-ol] | < 100 | < 100 | < 100 | 100 to 1000 | 100 to 1000 | – | –
6 | Cc1cc(=O)c2cc(O)c(-c3ccc4nc(N5CCC(NC(C)(C)C)C5)ccc4n3)cc2o1 (stereo not drawn) [Compound 174] | > 10000 | > 10000 | > 10000 | > 10000 | > 10000 | – | –
7 | CCN[C@@H]1CCN(c2ccc3nc(-c4cc5cn(C)nc5cc4O)ccc3n2)C1 [Compound 180] | < 100 | < 100 | < 100 | 100 to 1000 | 100 to 1000 | – | –
8 | CCN1CCC(c2ccc3nc(-c4cc5cn(C)nc5cc4O)ccc3n2)CC1 [Compound 138, 5-[6-(1-ethylpiperidin-4-yl)-1,5-naphthyridin-2-yl]-2-methylindazol-6-ol] | 100 to 1000 | 100 to 1000 | < 100 | 1000 to 10000 | 100 to 1000 | – | –
9 | Cn1cc2c(O)c(-c3ccc4nc(C5CCNCC5)ccc4n3)ccc2n1 [Compound 105, 2-methyl-5-[6-(piperidin-4-yl)-1,5-naphthyridin-2-yl]indazol-4-ol] | > 10000 | > 10000 | 1000 to 10000 | 1000 to 10000 | > 10000 | – | –

Further lines, with some results ahead:

Row | IC50 (HTT mRNA; [1]) [nM] | IC50 (HTT CJ mRNA) [nM] | IC50 (SMN2 CJ mRNA) [nM] | IC50 (Target C CJ mRNA) [nM] | SMILES | AC50 (HTT mRNA; [2]) [nM] | AC50 (HTT mRNA; 24 h, read-out: HTT AJ AC50 (nM)) [nM] | IC50 (HTT mRNA; 24 h, read-out: HTT CJ IC50 (nM)) [nM]
10 | 1000 to 10000 | 1000 to 10000 | 100 to 1000 | > 10000 | Cn1cc2cc(-c3ccc4nc(C5CCNCC5)ccc4n3)c(C#N)cc2n1 [Compound 204, 2-methyl-5-[6-(piperidin-4-yl)-1,5-naphthyridin-2-yl]indazole-6-carbonitrile] | 1000 to 10000 | – | –
11 | 100 to 1000 | 100 to 1000 | < 100 | 100 to 1000 | Cn1cc2cc(-c3ccc4nc(N5CC[C@@H](NCC6CC6)C5)ccc4n3)c(O)cc2n1 [Compound 195] | < 100 | – | –
12 | > 10000 | > 10000 | 100 to 1000 | > 10000 | Cn1cc2cc(-c3cc4ccc(N5CCC(NC(C)(C)C)C5)nc4cn3)c(O)cc2n1 (stereo not drawn) [Compound 218, 5-{2-[3-(tert-butylamino)pyrrolidin-1-yl]-1,7-naphthyridin-6-yl}-2-methylindazol-6-ol] | > 10000 | – | –
13 | < 100 | < 100 | < 100 | 100 to 1000 | Cc1nc2cc(O)c(-c3ccc4nc(N5CC[C@H](NC6CC6)C5)ccc4n3)cc2o1 (single isomer, unassigned) [Compound 211, 6-{6-[3-(cyclopropylamino)pyrrolidin-1-yl]-1,5-naphthyridin-2-yl}-2-methyl-1,3-benzoxazol-5-ol] | < 100 | – | –
14 | < 100 | > 10000 | > 10000 | > 10000 | Cc1c(O)c(-c2ccc3nc(N4CCC(NC(C)(C)C)C4)ccc3n2)cc2cn(C)nc12 (stereo not drawn) [Compound 191, 5-{6-[3-(tert-butylamino)pyrrolidin-1-yl]-1,5-naphthyridin-2-yl}-2,7-dimethylindazol-6-ol hydrochloride] | < 100 | – | –
15 | < 100 | < 100 | < 100 | < 100 | Cc1c(O)c(-c2ccc3nc(N4CC[C@H](NC5(C)CC5)C4)ccc3n2)cc2cn(C)nc12 (single isomer, unassigned) [Compound 226, 2,7-dimethyl-5-{6-[(35)-3-[(1-methylcyclopropyl)amino]pyrrolidin-1-yl]-1,5-naphthyridin-2-yl}indazol-6-ol] | < 100 | – | –
